# Results taken from patent US9113629B2, “4-amino-6-(4-substituted-phenyl)-picolinates and 6-amino-2-(4-substituted-phenyl)-pyrimidine-4-carboxylates and their use as herbicides” (DOW AGROSCIENCES LLC, priority 2013, dated 2015).
# Like-named read-outs stand apart in the source and are kept apart here.
# Columns and labels:
# [1] = test system: Key Broadleaf Weed and Crop Species; experiment: Post-emergent Test II herbicidal activity (Table 5); assay type: in vivo; conditions: post-emergence, 336 h, post-emergent, 14 days after application; for pest or weed control at 70 g/ha: 70 g ai/ha; for pest or weed control at 140 g/ha: 140 g ai/ha
# Summary of the method: (§1)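 Greenhouse post-emergent assay: seedlings (first/second true leaf) in Metro-Mix 360 were sprayed at 187 L/ha at a top rate plus twofold dilutions down to 1/16×; solvent-blank controls were included. Percent visual injury was read at 14 d.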
# [2] = test system: Key Grass and Sedge Weeds as well as Grass Crops; experiment: Post-emergent Test II herbicidal activity (Table 6); assay type: in vivo; conditions: post-emergence, 336 h; for pest or weed control at 70 g/ha: application rate 70 g ai/ha; for pest or weed control at 140 g/ha: application rate 140 g ai/ha
# Summary of the method: as §1
# [3] = ABUTH: velvetleaf (Abutilon theophrasti), read-out: Visual Growth Reduction (%) 14 Days After Application ABUTH
# [4] = AMARE: redroot pigweed (Amaranthus retroflexus), read-out: Visual Growth Reduction (%) 14 Days After Application AMARE
# [5] = BRSNN: oilseed-rape, canola (Brassica napus), read-out: Visual Growth Reduction (%) 14 Days After Application BRSNN
# [6] = CHEAL: lambsquarters (Chenopodium album), read-out: Visual Growth Reduction (%) 14 Days After Application CHEAL
# [7] = EPHHL: wild poinsettia (Euphorbia heterophylla), read-out: Visual Growth Reduction (%) 14 Days After Application EPHHL
# [8] = HELAN: sunflower (Helianthus annuus), read-out: Visual Growth Reduction (%) 14 Days After Application HELAN
# [9] = VIOTR: wild pansy (Viola tricolor), read-out: Visual Growth Reduction (%) 14 Days After Application VIOTR
# [10] = Triticum aestivum, TRZSS (wheat), read-out: Visual Growth Reduction (%) 14 Days After Application, TRZSS
# [11] = CYPES: yellow nutsedge (Cyperus esculentus), read-out: Visual Growth Reduction (%) 14 Days After Application, CYPES
# [12] = DIGSA: crabgrass (Digitaria sanguinalis), read-out: Visual Growth Reduction (%) 14 Days After Application, DIGSA
# [13] = ECHCG: barnyardgrass (Echinochloa crus-galli), read-out: Visual Growth Reduction (%) 14 Days After Application, ECHCG
# [14] = ORYSA: rice (Oryza sativa), read-out: Visual Growth Reduction (%) 14 Days After Application, ORYSA
# [15] = SETFA: giant foxtail (Setaria faberi), read-out: Visual Growth Reduction (%) 14 Days After Application, SETFA
# [16] = SORVU: grain sorghum (Sorghum vulgare), read-out: Visual Growth Reduction (%) 14 Days After Application, SORVU
# [17] = ZEAMX: maize, corn (Zea mays), read-out: Visual Growth Reduction (%) 14 Days After Application, ZEAMX
# [18] = TRZSS (wheat, Triticum aestivum), read-out: Visual Growth Reduction (%) 14 Days After Application, TRZSS
SMILES,"pest or weed control at 70 g/ha [1, 3]","pest or weed control at 140 g/ha [1, 3]","pest or weed control at 70 g/ha [1, 4]","pest or weed control at 140 g/ha [1, 4]","pest or weed control at 70 g/ha [1, 5]","pest or weed control at 140 g/ha [1, 5]","pest or weed control at 70 g/ha [1, 6]","pest or weed control at 140 g/ha [1, 6]","pest or weed control at 70 g/ha [1, 7]","pest or weed control at 140 g/ha [1, 7]","pest or weed control at 70 g/ha [1, 8]","pest or weed control at 140 g/ha [1, 8]","pest or weed control at 70 g/ha [1, 9]","pest or weed control at 140 g/ha [1, 9]","pest or weed control at 70 g/ha [2, 11]","pest or weed control at 140 g/ha [2, 11]","pest or weed control at 70 g/ha [2, 12]","pest or weed control at 140 g/ha [2, 12]","pest or weed control at 70 g/ha [2, 13]","pest or weed control at 140 g/ha [2, 13]",also measured
"C=Cc1c(N)nc(-c2ccc(F)c(F)c2F)nc1C(=O)O [Compound 191, 6-Amino-2-(2,3,4-trifluorophenyl)-5-vinylpyrimidine-4-carboxylic acid]",60 to 74%,95 to 100%,95 to 100%,95 to 100%,95 to 100%,95 to 100%,95 to 100%,95 to 100%,95 to 100%,95 to 100%,95 to 100%,95 to 100%,45 to 59%,45 to 59%,0 to 29%,60 to 74%,60 to 74%,75 to 84%,85 to 94%,75 to 84%,"pest or weed control at 70 g/ha [2, 10]: 0 to 29%; pest or weed control at 140 g/ha [2, 10]: 30 to 44%; pest or weed control at 70 g/ha [2, 14]: 0 to 29%; pest or weed control at 140 g/ha [2, 14]: 0 to 29%; pest or weed control at 70 g/ha [2, 15]: 75 to 84%; pest or weed control at 140 g/ha [2, 15]: 75 to 84%; pest or weed control at 70 g/ha [2, 16]: 45 to 59%; pest or weed control at 140 g/ha [2, 16]: 45 to 59%; pest or weed control at 70 g/ha [2, 17]: 45 to 59%; pest or weed control at 140 g/ha [2, 17]: 60 to 74%; melting point: 154 to 157 °C"
COC(=O)c1nc(-c2cc(F)c(C(F)F)cc2F)nc(N)c1OC [Compound 193],60 to 74%,75 to 84%,75 to 84%,95 to 100%,60 to 74%,60 to 74%,85 to 94%,95 to 100%,85 to 94%,95 to 100%,60 to 74%,75 to 84%,0 to 29%,30 to 44%,30 to 44%,45 to 59%,0 to 29%,0 to 29%,0 to 29%,0 to 29%,"pest or weed control at 70 g/ha [2, 14]: 0 to 29%; pest or weed control at 140 g/ha [2, 14]: 0 to 29%; pest or weed control at 70 g/ha [2, 15]: 0 to 29%; pest or weed control at 140 g/ha [2, 15]: 45 to 59%; pest or weed control at 70 g/ha [2, 16]: 0 to 29%; pest or weed control at 140 g/ha [2, 16]: 45 to 59%; pest or weed control at 70 g/ha [2, 18]: 0 to 29%; pest or weed control at 140 g/ha [2, 18]: 30 to 44%; pest or weed control at 70 g/ha [2, 17]: 0 to 29%; pest or weed control at 140 g/ha [2, 17]: 0 to 29%; melting point: 127.9 to 129.2 °C"
"C=Cc1c(N)nc(-c2ccc(F)c(F)c2F)nc1C(=O)OC [Compound 197, Methyl 6-amino-2-(2,3,4-trifluorophenyl)-5-vinylpyrimidine-4-carboxylate]",95 to 100%,95 to 100%,95 to 100%,95 to 100%,95 to 100%,85 to 94%,95 to 100%,95 to 100%,95 to 100%,95 to 100%,85 to 94%,85 to 94%,60 to 74%,75 to 84%,60 to 74%,60 to 74%,45 to 59%,60 to 74%,0 to 29%,75 to 84%,"pest or weed control at 70 g/ha [2, 10]: 0 to 29%; pest or weed control at 140 g/ha [2, 10]: 0 to 29%; pest or weed control at 70 g/ha [2, 14]: 0 to 29%; pest or weed control at 140 g/ha [2, 14]: 0 to 29%; pest or weed control at 70 g/ha [2, 15]: 0 to 29%; pest or weed control at 140 g/ha [2, 15]: 0 to 29%; pest or weed control at 70 g/ha [2, 16]: 60 to 74%; pest or weed control at 140 g/ha [2, 16]: 60 to 74%; pest or weed control at 70 g/ha [2, 17]: 60 to 74%; pest or weed control at 140 g/ha [2, 17]: 60 to 74%; melting point: 156 to 158 °C"
COC(=O)c1nc(-c2cc(F)c(C#N)cc2F)cc(N)c1Cl [Compound 202],95 to 100%,95 to 100%,95 to 100%,95 to 100%,75 to 84%,85 to 94%,95 to 100%,95 to 100%,95 to 100%,95 to 100%,95 to 100%,95 to 100%,60 to 74%,60 to 74%,85 to 94%,85 to 94%,30 to 44%,60 to 74%,60 to 74%,95 to 100%,"pest or weed control at 70 g/ha [2, 14]: 0 to 29%; pest or weed control at 140 g/ha [2, 14]: 0 to 29%; pest or weed control at 70 g/ha [2, 15]: 60 to 74%; pest or weed control at 140 g/ha [2, 15]: 60 to 74%; pest or weed control at 70 g/ha [2, 16]: 60 to 74%; pest or weed control at 140 g/ha [2, 16]: 85 to 94%; pest or weed control at 70 g/ha [2, 18]: 60 to 74%; pest or weed control at 140 g/ha [2, 18]: 75 to 84%; pest or weed control at 70 g/ha [2, 17]: 30 to 44%; pest or weed control at 140 g/ha [2, 17]: 45 to 59%; melting point: 209.7 to 211.9 °C"
